From patent US4870085A, “Tryptamine derivatives active on central nervous system” (Bayer Aktiengesellschaft, priority 1984, dated 1989)
Structures can show the parent of a compound that is named as a salt.

Assays:
5-HT1 receptor = test: Interaction with serotonin receptors: 5-HT1 receptor, calf hippocampus, ligand 3H-serotonin; type: binding; conditions: ligand 3H-serotonin (Table 2), read-out: K1
Experimental: (§1) Interaction with serotonin receptors
(§2) Inhibition constant K1 (nmol l^-1)
Ligand: ^3 H--serotonin
In generally similar manner there were prepared additional compounds which, when tested against 5-HT, receptors as in Example 7, gave the results shown in Table 2.

5-HT2 receptor = biological target: T1, 5-HT2 receptor (Rattus norvegicus, UniProt P14842); test: Interaction with serotonin receptors: 5-HT2 receptor, rat prefrontal cortex, ligand 3H-ketanserin; type: binding
T1 construct: rat prefrontal cortex; from tissue; host or cells: rat prefrontal cortex
T1 sequence (P14842 whole entry): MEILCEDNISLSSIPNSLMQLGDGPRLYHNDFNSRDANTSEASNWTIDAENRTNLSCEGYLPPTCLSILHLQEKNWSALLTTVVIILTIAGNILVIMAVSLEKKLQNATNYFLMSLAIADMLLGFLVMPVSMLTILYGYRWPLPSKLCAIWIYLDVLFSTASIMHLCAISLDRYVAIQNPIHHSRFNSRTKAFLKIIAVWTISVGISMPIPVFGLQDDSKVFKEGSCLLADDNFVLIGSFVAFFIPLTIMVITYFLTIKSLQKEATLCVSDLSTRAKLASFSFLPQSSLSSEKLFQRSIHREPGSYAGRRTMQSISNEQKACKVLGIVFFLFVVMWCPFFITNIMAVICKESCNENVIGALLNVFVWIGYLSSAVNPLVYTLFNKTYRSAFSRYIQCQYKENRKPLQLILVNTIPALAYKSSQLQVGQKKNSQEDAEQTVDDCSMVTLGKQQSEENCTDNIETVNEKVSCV
Excerpt: as §1, §2
5-HT2 receptor Contraction of the
Ligand: ^3 H--ketanserin

Row | SMILES | Ki (5-HT1 receptor) | Ki (5-HT2 receptor)
1 | C[C@@H]1CCC[C@H](C)N1CCc1c[nH]c2ccc(Br)cc12 [compound 18] | 30 nM | 
2 | C[C@@H]1CCC[C@H](C)N1CCc1cn(C(=O)OC(C)(C)C)c2ccccc12 [compound 30] | 1800 nM | 
3 | C[C@@H]1CCC[C@H](C)N1CCc1c[nH]c2ccc(Br)cc12 [Example 3, 3-[2-(Cis-2,6-dimethylpiperidinyl)ethyl]-5-bromoindole hydrochloride] |  | 1300 nM
4 | C[C@@H]1CCC[C@H](C)N1CCc1c[nH]c2ccc(C(N)=O)cc12 [compound 37] | 7 nM | 
5 | C[C@@H]1CCC[C@H](C)N1CCc1cn(C)c2ccc(Br)cc12 [compound 34] | 1100 nM | 
6 | CC1CC(C)N(CCc2c[nH]c3ccccc23)C(C)C1 (centres unmarked) [compound 26] | 920 nM | 
7 | C[C@@H]1CCC[C@H](C)N1CCc1c[nH]c2ccc(F)cc12 [compound 24] | 170 nM | 
8 | C[C@@H]1CCC[C@H](C)N1CCc1c[nH]c2ccc(O)cc12 [compound 12] | 15 nM | 
9 | C[C@@H]1CCC[C@H](C)N1CCc1c[nH]c2ccc(C#N)cc12 [compound 28] | 240 nM | 
10 | C[C@@H]1CCC[C@H](C)N1CCc1c[nH]c2ccc(-n3cc(CCN4[C@H](C)CCC[C@@H]4C)c4cc(Br)ccc43)cc12 [compound 32] | 680 nM | 
11 | C[C@@H]1CCC[C@H](C)N1CCc1c[nH]c2ccc(O)cc12 [compound 16] | 4 nM | 
12 | C[C@@H]1CCC[C@H](C)N1CCc1c[nH]c2ccc(OCc3ccccc3)cc12 [compound 11] | 200 nM | 
13 | C[C@H]1CCC[C@H](C)N1CCc1c[nH]c2ccc(O)cc12 (relative stereo) [compound 17] | 25 nM | 
14 | C[C@@H]1CCC[C@H](C)N1CCc1c[nH]c2ccc(CN)cc12 [compound 35] | 500 nM | 
15 | COc1ccc2[nH]cc(CCN3[C@@H](C)CCC[C@@H]3C)c2c1 (relative stereo) [compound 22] | 45 nM | 
16 | CC1CC(C)N(CCc2c[nH]c3ccc(Cl)cc23)C(C)C1 (centres unmarked) [compound 38] | 660 nM | 

Row | SMILES | Ki (5-HT1 receptor) | Ki (5-HT2 receptor)
17 | COc1ccc2[nH]cc(CCN3[C@@H](C)CCC[C@@H]3C)c2c1 (relative stereo) [compound 20] | 450 nM | 
18 | C[C@H]1CCC[C@H](C)N1CCc1c[nH]c2ccccc12 (relative stereo) [compound 29] | 3000 nM | 
19 | C[C@@H]1CCC[C@H](C)N1CCc1c[nH]c2ccccc12 [Example 2, 3-[2-(Cis-2,6-dimethylpiperidinyl)ethyl]indole hydrochloride] |  | 2500 nM
20 | Cc1ccc(S(=O)(=O)n2cc(CCN3[C@H](C)CCC[C@@H]3C)c3cc(Br)ccc32)cc1 [compound 31] | 3200 nM | 
21 | COc1ccc2[nH]cc(CCN3[C@H](C)CCC[C@@H]3C)c2c1 [compound 9] | 13 nM | 
22 | Cc1ccc2[nH]cc(CCN3[C@H](C)CCC[C@@H]3C)c2c1 [compound 27] | 40 nM | 
23 | C[C@H]1CCC[C@H](C)N1CCc1c[nH]c2ccc(OCc3ccccc3)cc12 (relative stereo) [compound 15] | 500 nM | 
24 | C[C@@H]1CCC[C@H](C)N1CCc1c[nH]c2ccc(OCc3ccccc3)cc12 [compound 14] | 800 nM | 
25 | CC1(C)CCCC(C)(C)N1CCc1c[nH]c2ccccc12 [compound 39] | > 10000 nM | 
26 | C[C@@H]1CCC[C@H](C)N1CCc1cn(C(N)=O)c2ccccc12 [compound 13] | 1800 nM | 
27 | C[C@@H]1CCC[C@H](C)N1CCc1c[nH]c2ccc(Cl)cc12 [compound 23] | 60 nM | 
28 | C[C@@H]1CCC[C@H](C)N1CCc1c[nH]c2ccccc12 [compound 19] | 800 nM | 
29 | C[C@@H]1CCC[C@H](C)N1CCc1cn(C(=O)c2ccccc2)c2ccc(Br)cc12 [compound 36] | 1000 nM | 
30 | COc1ccc2[nH]cc(CCN3[C@H](C)CCC[C@@H]3C)c2c1 [compound 10] | 10 nM | 
31 | CC1CCCCN1CCc1c[nH]c2ccccc12 (centres unmarked) [compound 25] | 170 nM | 
32 | COc1ccc2[nH]cc(CCN3[C@H](C)CCC[C@@H]3C)c2c1 [compound 21] | 70 nM | 
